# Results taken from ChEMBL document CHEMBL1201862, “PubChem BioAssay data set” (2004).
#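 48-hour exposure; five concentrations; linearly interpolated endpoints. GI50 = concentration required for 50% inhibition of growth.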 Active and inactive are the calls of the source. Rule as the data show it: active = GI50 up to about 1.1 µM and inactive = higher.
# Key:
# Assay in all cases: DTP human tumour cell line panel, 48 h
# SR = test system: SR
# RXF 393 = test system: RXF 393
# U-251 = test system: U-251
# CCRF-CEM = test system: CCRF-CEM
# A498 = test system: A498
# MDA-MB-435 = test system: MDA-MB-435
# SF-295 = test system: SF-295
# NCI-H226 = test system: NCI-H226
# OVCAR-5 = test system: OVCAR-5
# EKVX = test system: EKVX
# SN12C = test system: SN12C
# TK-10 = test system: TK-10
# RPMI-8226 = test system: RPMI-8226
# SF-268 = test system: SF-268
# MDA-MB-231 = test system: MDA-MB-231
# M14 = test system: M14
# SK-MEL-28 = test system: SK-MEL-28
# MCF7 = test system: MCF7
# COLO 205 = test system: COLO 205
# LOX IMVI = test system: LOX IMVI
Compound,GI50 (SR),GI50 (RXF 393),GI50 (U-251),GI50 (CCRF-CEM),GI50 (A498),GI50 (MDA-MB-435),GI50 (SF-295),GI50 (NCI-H226),GI50 (OVCAR-5),GI50 (EKVX),GI50 (SN12C),GI50 (TK-10),GI50 (RPMI-8226),GI50 (SF-268),GI50 (MDA-MB-231),GI50 (M14),GI50 (SK-MEL-28),GI50 (MCF7),GI50 (COLO 205),GI50 (LOX IMVI)
CCOC(=O)CCC1(C(=O)O[C@@H]2C[C@H](C)CC[C@H]2C(C)C)CCCCC1=O (stereo partly specified),41.2 µM (inactive),55.7 µM (inactive),63.2 µM (inactive),46.1 µM (inactive),> 100 µM (inactive),74.1 µM (inactive),65.8 µM (inactive),> 100 µM (inactive),> 100 µM (inactive),41.3 µM (inactive),> 100 µM (inactive),56.4 µM (inactive),28.7 µM (inactive),> 100 µM (inactive),> 100 µM (inactive),56.5 µM (inactive),74 µM (inactive),58.6 µM (inactive),65 µM (inactive),> 100 µM (inactive)
COc1ccccc1NC(=O)CC(=O)n1nc(C)c(/N=N/c2ccccc2Cl)c1C,> 72.4 µM (inactive),> 100 µM (inactive),27.8 µM (inactive),> 81.3 µM (inactive),> 100 µM (inactive),> 100 µM (inactive),83.4 µM (inactive),> 100 µM (inactive),> 100 µM (inactive),> 90.4 µM (inactive),> 100 µM (inactive),> 100 µM (inactive),> 100 µM (inactive),> 76 µM (inactive),> 100 µM (inactive),> 100 µM (inactive),> 100 µM (inactive),> 100 µM (inactive),> 100 µM (inactive),> 100 µM (inactive)
CCOC(=O)c1cc2c([nH]1)c(OC(C)=O)cc1c2ccn1Cc1ccccc1,> 100 µM (inactive),> 100 µM (inactive),> 100 µM (inactive),> 100 µM (inactive),> 100 µM (inactive),> 100 µM (inactive),> 100 µM (inactive),> 100 µM (inactive),> 100 µM (inactive),99.5 µM (inactive),> 100 µM (inactive),,> 100 µM (inactive),> 100 µM (inactive),> 100 µM (inactive),> 100 µM (inactive),> 100 µM (inactive),> 100 µM (inactive),> 100 µM (inactive),> 100 µM (inactive)
CC(C)=CC1CC(C)C2(CCC3(C)CC4C(C(=O)CC4(C)O)/C(C=O)=C\CC32)O1 (stereo unspecified),0.03 µM (active),0.0373 µM (active),0.0735 µM (active),0.0179 µM (active),0.278 µM (active),0.0617 µM (active),0.191 µM (active),0.0689 µM (active),0.14 µM (active),0.154 µM (active),0.0638 µM (active),0.0235 µM (active),0.0255 µM (active),0.136 µM (active),0.0968 µM (active),0.134 µM (active),0.104 µM (active),0.0675 µM (active),0.0596 µM (active),0.0582 µM (active)
CCCCCCCCCCCCCCCCCCN(C)C(COC)COP(=O)([O-])OCC[N+](C)(C)C (stereo unspecified),2.23 µM (inactive),1.57 µM (inactive),1.97 µM (inactive),2.18 µM (inactive),7.38 µM (inactive),15.6 µM (inactive),2.56 µM (inactive),3.58 µM (inactive),2.34 µM (inactive),17.5 µM (inactive),4.23 µM (inactive),1.84 µM (inactive),1.83 µM (inactive),3.24 µM (inactive),5.73 µM (inactive),3.46 µM (inactive),18.5 µM (inactive),10.1 µM (inactive),1.58 µM (inactive),4.49 µM (inactive)
NNC(=S)N/N=C(/C(=O)Nc1ccc(Cl)c(Cl)c1)C(C1OC(=O)c2ccccc21)[N+](=O)[O-] (stereo unspecified),> 10 µM (inactive),> 100 µM (inactive),> 100 µM (inactive),52.7 µM (inactive),> 100 µM (inactive),> 100 µM (inactive),> 100 µM (inactive),> 100 µM (inactive),> 100 µM (inactive),> 100 µM (inactive),> 100 µM (inactive),> 100 µM (inactive),> 100 µM (inactive),> 100 µM (inactive),> 100 µM (inactive),> 100 µM (inactive),> 100 µM (inactive),> 100 µM (inactive),,> 100 µM (inactive)
COC(=O)C(Cc1ccc2c(c1)CCC2)Cc1ccc2c(c1)CCC2,57 µM (inactive),31 µM (inactive),51.9 µM (inactive),32.4 µM (inactive),38.1 µM (inactive),48.8 µM (inactive),36.6 µM (inactive),42.5 µM (inactive),> 100 µM (inactive),44.8 µM (inactive),> 100 µM (inactive),> 100 µM (inactive),26.1 µM (inactive),48.6 µM (inactive),> 100 µM (inactive),80 µM (inactive),94.4 µM (inactive),31.5 µM (inactive),92.7 µM (inactive),20.8 µM (inactive)
COC(=O)c1cc(NC(=O)Cc2c[nH]c3ccccc23)cn1C,39.4 µM (inactive),> 100 µM (inactive),68.4 µM (inactive),45.3 µM (inactive),> 100 µM (inactive),55.8 µM (inactive),> 100 µM (inactive),21.7 µM (inactive),> 100 µM (inactive),> 100 µM (inactive),42.9 µM (inactive),87.9 µM (inactive),21.3 µM (inactive),88.5 µM (inactive),27.4 µM (inactive),> 100 µM (inactive),42 µM (inactive),60.8 µM (inactive),82 µM (inactive),58.3 µM (inactive)
O=C1CCCC/C1=C(\Br)I,2.67 µM (inactive),15.6 µM (inactive),18 µM (inactive),1.77 µM (inactive),19.4 µM (inactive),15.1 µM (inactive),17.5 µM (inactive),23.4 µM (inactive),18.8 µM (inactive),18.7 µM (inactive),16.9 µM (inactive),13.9 µM (inactive),2.86 µM (inactive),9.62 µM (inactive),17.6 µM (inactive),6.78 µM (inactive),15.7 µM (inactive),12.8 µM (inactive),15.1 µM (inactive),16.7 µM (inactive)
CC(=O)OCC1OC(n2c(=O)[nH]c(=O)c3sccc32)C(Br)C1OC(C)=O (stereo unspecified),> 100 µM (inactive),> 100 µM (inactive),> 100 µM (inactive),> 100 µM (inactive),> 100 µM (inactive),> 100 µM (inactive),> 100 µM (inactive),> 100 µM (inactive),> 100 µM (inactive),> 100 µM (inactive),> 100 µM (inactive),> 100 µM (inactive),> 100 µM (inactive),> 100 µM (inactive),> 100 µM (inactive),> 100 µM (inactive),> 100 µM (inactive),> 100 µM (inactive),> 100 µM (inactive),> 100 µM (inactive)
O=C1C(N2CCN(c3ccccn3)CC2)=C(Cl)C(=O)c2ncccc21,2.28 µM (inactive),1.98 µM (inactive),> 10 µM (inactive),1.32 µM (inactive),5.07 µM (inactive),> 3.74 µM (inactive),> 10 µM (inactive),> 10 µM (inactive),> 10 µM (inactive),> 10 µM (inactive),1.66 µM (inactive),3.24 µM (inactive),0.353 µM (active),> 6.1 µM (inactive),3.63 µM (inactive),1.98 µM (inactive),2.89 µM (inactive),1.76 µM (inactive),1.96 µM (inactive),2.22 µM (inactive)
Cc1cs/c(=N\C(P(=O)(O)O)P(=O)(O)O)n1C,> 100 µM (inactive),> 100 µM (inactive),> 100 µM (inactive),> 100 µM (inactive),> 100 µM (inactive),> 100 µM (inactive),> 100 µM (inactive),> 100 µM (inactive),> 100 µM (inactive),> 100 µM (inactive),,> 100 µM (inactive),> 100 µM (inactive),> 100 µM (inactive),> 100 µM (inactive),> 100 µM (inactive),> 100 µM (inactive),> 100 µM (inactive),> 100 µM (inactive),> 100 µM (inactive)
O=C(O)CCC(C(=O)O)N1C(=O)c2ccccc2C1=O (stereo unspecified),> 100 µM (inactive),> 100 µM (inactive),> 100 µM (inactive),> 100 µM (inactive),> 100 µM (inactive),> 100 µM (inactive),> 100 µM (inactive),> 100 µM (inactive),> 100 µM (inactive),> 100 µM (inactive),> 100 µM (inactive),> 100 µM (inactive),> 100 µM (inactive),> 100 µM (inactive),> 100 µM (inactive),> 100 µM (inactive),> 100 µM (inactive),> 100 µM (inactive),> 100 µM (inactive),> 100 µM (inactive)
COS(C)(=O)=O [METHANESULFONIC ACID METHYL ESTER],> 2 µM (inactive),> 2 µM (inactive),> 2 µM (inactive),> 2 µM (inactive),> 2 µM (inactive),> 2 µM (inactive),,> 2 µM (inactive),> 2 µM (inactive),> 2 µM (inactive),> 2 µM (inactive),> 2 µM (inactive),> 2 µM (inactive),> 2 µM (inactive),> 2 µM (inactive),> 2 µM (inactive),> 2 µM (inactive),> 2 µM (inactive),> 2 µM (inactive),> 2 µM (inactive)
